Results from article PMC9884089 (Journal of Medicinal Chemistry, 2023).

Assays:
PARP16 = biological target: T1, PARP16 (Homo sapiens, UniProt Q8N5Y8); assay: Proximity-enhanced mono-ART activity assay, PARP16; type: biochemical; details: > less than 50% inhibition
T1 construct: dockerin domain of Hungateiclostridium thermocellum Cel48s (C); made in house; host or cells: Escherichia coli
T1 sequence (Q8N5Y8 1-322): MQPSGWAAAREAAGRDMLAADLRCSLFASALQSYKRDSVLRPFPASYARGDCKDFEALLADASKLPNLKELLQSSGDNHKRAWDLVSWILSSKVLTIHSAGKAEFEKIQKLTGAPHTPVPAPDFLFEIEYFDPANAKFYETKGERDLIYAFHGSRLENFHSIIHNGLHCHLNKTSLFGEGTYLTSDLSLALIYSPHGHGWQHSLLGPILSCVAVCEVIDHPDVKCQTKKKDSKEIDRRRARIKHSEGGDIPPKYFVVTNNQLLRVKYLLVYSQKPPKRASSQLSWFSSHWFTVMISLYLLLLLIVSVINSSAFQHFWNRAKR
Method: We therefore had to improve the assay method and developed a homogeneous proximity enhanced assay for mono-ARTs.[47]
The proteins used in Tables 1–3 were produced as described earlier. Dockerin constructs to allow enhanced activity assays for mono-ARTs (Table 4) were produced in Escherichia coli with an N-terminal maltose binding protein (MBP) and a C-terminal dockerin domain from Hungateiclostridium thermocellum Cel48s as described recently.[47]
(§1) Inhibition experiments were performed using a homogenous assay measuring NAD+ consumption.[80]−[82] Reactions were carried out in quadruplicate, and IC50 curves were fitted using sigmoidal dose response curve (four variables) in GraphPad Prism version 8.02. […] Assay conditions for PARP2, TNKS2, PARP10, and PARP15 (Tables 1–3) were recently reported.[44] The conditions for the proximity-enhanced mono-ART assays (Table 4) were also reported recently.[47] PARP6 (400 nM) inhibition was measured using the standard buffer (50 mM sodium phosphate pH 7.0) for the enhanced activity assay using 500 nM NAD^+ and 18 h incubation in r.t..

[1] = Stability in human plasma; type: in vitro ADME; details: 37 °C
Method: HEPES buffer (0.9 mL, 25 mM, 140 mM NaCl, pH 7.4), and 0.1 mL of each compound in DMSO (2.0 mM). The solution was mixed in a test tube that was incubated at 37 °C. […] The supernatant was removed and analyzed by UV/LC–MS.

[2] = PAMPA, gastrointestinal tract (GI) permeability; type: in vitro ADME; details: phosphatidylcholine; for Papp at 5 h, 500 μM: pH 7.4, 5 h
Method: (§2) Each “donor solution” was prepared from a solution of the appropriate compound (DMSO, 1 mM) diluted with phosphate buffer (pH 7.4, 0.025 M) up to a final concentration of 500 μM. […] Donor solution (150 μL) was added to each well of the filter plate and to each well of the acceptor plate was added 300 μL of solution (50% DMSO in phosphate buffer). The sandwich plate was assembled and incubated for 5 h at r.t. After the incubation time, the plates were separated, and the samples were taken from both the donor and acceptor wells, and the amount of compound was measured by UV/LC–MS. All compounds were tested in three independent experiments. […] Drug concentration is estimated by using the peak area integration. Membrane retentions (%) were calculated according to the following equation [drawing 2] where r is the ratio between drug concentration in the acceptor and equilibrium concentration and D, A, and Eq represent drug concentration in the donor, acceptor, and equilibrium solution, respectively.

[3] = PAMPA, blood brain barrier (BBB) permeability; type: in vitro ADME; details: brain polar lipid; for Papp at 5 h, 500 μM: pH 7.4, 5 h
Method: as §2

Stability in PBS pH 7.4 = type: physicochemical; details: 500 μM
Method: (§3) For the stability measurements in polar solvents, each compound was dissolved at room temperature in MeOH or PBS (0.025 M, pH 7.4) up to a final concentration of 500 μM.

Stability in MeOH = type: physicochemical; details: 500 μM
Method: as §3

[4] = Metabolic stability in HLM; details: 37 °C, 1 h, NADPH regenerating system
Method: Each compound in DMSO solution was incubated at 37 °C for 1 h in phosphate buffer (25 mM pH 7.4), human liver microsomal protein (0.2 mg/mL), and in the presence of an NADPH regenerating system (NADPH 0.2 mM, […] 1 mM, D-glucose-6-phosphate 4 mM, 4 unit/mL glucose-6-phosphate dehydrogenase) in 48 mM MgCl2 at a final volume of 500 μL. The reaction was stopped by cooling in ice and quenched by adding 1.0 mL of acetonitrile. The reaction mixtures were then centrifuged (4000 rpm for 10 min), and the supernatant was taken, dried under nitrogen flow, and suspended in 100 μL of methanol. The parent drug and metabolites were subsequently determined by UV/LC–MS. The percentage of not metabolized compound was calculated by comparison with reference solutions. For each compound, the determination was performed in three independent experiments.

[5] = tested on: HeLa Flp-In T-REx-PARP10 cells; assay: PARP10 rescue assay (colony formation, Dox-induced PARP10 overexpression); type: cell-based, human; details: for EC50: Homo sapiens, HeLa, read-out: PARP10 rescue EC50; for Rescue of cells from PARP10-induced cell death: at 1 μM, colony formation
Method: HeLa Flp-In T-REx-PARP10 and -PARP10-G888W cells were grown in DMEM medium supplemented with 10% heat-inactivated fetal calf serum at 37 °C in 5% CO2.[92] For colony formation assays, 500 HeLa cells were seeded in 6-well culture plates. Once the cells adhered, protein expression was induced by adding 500 ng/mL Dox. […] The number of colonies was assessed using ImageJ. EC50 curves were fitted using three variables in GraphPad Prism version 8.02.

Human PARP6 = biological target: T2, Human PARP6 (Homo sapiens, UniProt Q2NL67); assay: PARP6 inhibition assay (400 nM PARP6, 500 nM NAD+, 18 h); type: biochemical; details: ≫ no inhibition at the concentration; > less than 50% inhibition
T2 construct: Human PARP6 (Uniprot #Q2NL67-1) was cloned into a modified pFASTBac1 vector; 6× His-MBP with TEV protease site (N, cleaved yes); made in house; host or cells: Sf21 insect cells (baculovirus)
Method: as §1

T2 sequence (Q2NL67 whole entry): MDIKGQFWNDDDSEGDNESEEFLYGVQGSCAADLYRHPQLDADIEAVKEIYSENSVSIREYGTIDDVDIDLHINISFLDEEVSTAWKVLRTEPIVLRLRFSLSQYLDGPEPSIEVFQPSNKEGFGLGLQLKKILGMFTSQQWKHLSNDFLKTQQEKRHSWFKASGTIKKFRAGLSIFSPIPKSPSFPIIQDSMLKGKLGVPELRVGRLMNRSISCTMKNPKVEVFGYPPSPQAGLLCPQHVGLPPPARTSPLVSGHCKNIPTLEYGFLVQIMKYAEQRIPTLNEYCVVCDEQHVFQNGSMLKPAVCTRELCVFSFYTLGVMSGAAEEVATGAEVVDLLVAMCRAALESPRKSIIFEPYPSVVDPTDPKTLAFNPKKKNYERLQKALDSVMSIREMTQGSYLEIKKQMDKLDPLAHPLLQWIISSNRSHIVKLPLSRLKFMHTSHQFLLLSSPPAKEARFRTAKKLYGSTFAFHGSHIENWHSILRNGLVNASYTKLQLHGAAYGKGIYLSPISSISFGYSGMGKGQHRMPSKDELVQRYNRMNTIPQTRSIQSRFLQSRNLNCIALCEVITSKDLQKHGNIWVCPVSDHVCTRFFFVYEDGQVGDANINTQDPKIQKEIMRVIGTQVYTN

For `Cc1ccc2c(c1)sc1nnc(N)n12` [Compound 21, 7-Methyl[1,2,4]triazolo[3,4-b][1,3]benzothiazol-3-amine], the IC50 (PARP16) was 5.2 µM, the “stab in human plasma” value [1] was over 24 h and the “GI RM % (retention membrane percentage)” value [2] was 1.8%. For the same molecule, the Papp at 5 h, 500 μM [2] was 0.281 ×10⁻⁶ cm/s, the “BBB RM % (retention membrane percentage)” value [3] was 5.3% and the Papp at 5 h, 500 μM [3] was 0.475 ×10⁻⁶ cm/s. For the same molecule, the “stab in PBS pH 7.4” value (Stability in PBS pH 7.4) was over 24 h, the “stab. in MeOH” value (Stability in MeOH) was over 24 h and the “metabolic stablity % (unchanged compound)” value [4] was 99.14%. For the same molecule, the EC50 [5] was 0.5 µM, the “Rescue of cells from PARP10-induced cell death” value [5] was “efficiently rescued cells from PARP10-induced cell death” and the IC50 (Human PARP6) was over 10 µM.

In the case of `COc1ccc(OC)c2c1sc1nnc(N)n12` [Compound 27, 5,8-Dimethoxy[1,2,4]triazolo[3,4-b][1,3]benzothiazol-3-amine], the IC50 (PARP16) is reported as 3.4 µM, the “stab in human plasma” value [1] is reported as over 24 h and the “GI RM % (retention membrane percentage)” value [2] is reported as 1.3%. For the same molecule, the Papp at 5 h, 500 μM [2] was 0.144 ×10⁻⁶ cm/s, the “BBB RM % (retention membrane percentage)” value [3] was 3.4% and the Papp at 5 h, 500 μM [3] was 0.143 ×10⁻⁶ cm/s. The “stab in PBS pH 7.4” value (Stability in PBS pH 7.4) was over 24 h, the “stab. in MeOH” value (Stability in MeOH) was over 24 h and the “metabolic stablity % (unchanged compound)” value [4] was 99.11%. The EC50 [5] was 0.15 µM, the “Rescue of cells from PARP10-induced cell death” value [5] was “efficiently rescued cells from PARP10-induced cell death” and the IC50 (Human PARP6) was 7.7 µM.
